Laboratory results taken from patent US9487515B2, “Compounds modulating c-fms and/or c-kit activity and uses therefor” (Plexxikon Inc., priority 2006, dated 2016).

The compounds below were run against c-kit (Homo sapiens, UniProt P10721) (assay: c-kit assays of Examples 40 and 41 (AlphaScreen kinase assays at 10 and 100 μM ATP, 33P-ATP filter assay, M-07e SCF-stimulated proliferation and phosphorylation)).
c-kit, sequence (P10721 with tags, fused parts or gaps): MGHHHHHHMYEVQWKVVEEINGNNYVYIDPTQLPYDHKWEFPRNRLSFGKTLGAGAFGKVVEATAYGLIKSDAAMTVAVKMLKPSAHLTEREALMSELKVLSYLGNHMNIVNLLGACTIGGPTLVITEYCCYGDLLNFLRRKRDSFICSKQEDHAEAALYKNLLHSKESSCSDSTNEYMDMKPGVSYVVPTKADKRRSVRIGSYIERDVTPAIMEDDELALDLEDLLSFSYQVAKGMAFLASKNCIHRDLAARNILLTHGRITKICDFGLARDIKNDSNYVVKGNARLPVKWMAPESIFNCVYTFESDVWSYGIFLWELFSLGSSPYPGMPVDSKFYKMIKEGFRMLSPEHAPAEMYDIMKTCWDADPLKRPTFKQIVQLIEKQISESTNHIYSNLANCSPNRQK

Row | IC50 [nM] | Structure (SMILES)
1 | < 1000 | Clc1ccc(CNc2ccc(Cc3c[nH]c4ncccc34)cn2)c(Cl)c1 [P-0342, (2,4-Dichloro-benzyl)-[5-(1H-pyrrolo[2,3-b]pyridin-3-ylmethyl)-pyridin-2-yl]-amine]
2 | < 1000 | Fc1cccc(CNc2ccc(Cc3c[nH]c4ncccc34)cn2)c1 [P-0343, (3-Fluoro-benzyl)-[5-(1H-pyrrolo[2,3-b]pyridin-3-ylmethyl)-pyridin-2-yl]-amine]
3 | < 1000 | Fc1cc(C(F)(F)F)ccc1CNc1ccc(Cc2c[nH]c3ncccc23)cn1 [P-0344, (2-Fluoro-4-trifluoromethyl-benzyl)-[5-(1H-pyrrolo[2,3-b]pyridin-3-ylmethyl)-pyridin-2-yl]-amine]
4 | < 1000 | Fc1cc(Cl)ccc1CNc1ccc(Cc2c[nH]c3ncccc23)cn1 [P-0345, (4-Chloro-2-fluoro-benzyl)-[5-(1H-pyrrolo[2,3-b]pyridin-3-ylmethyl)-pyridin-2-yl]-amine]
5 | < 1000 | Fc1cc(CNc2ccc(Cc3c[nH]c4ncccc34)cn2)cc(C(F)(F)F)c1 [P-0346, (3-Fluoro-5-trifluoromethyl-benzyl)-[5-(1H-pyrrolo[2,3-b]pyridin-3-ylmethyl)-pyridin-2-yl]-amine]
6 | < 1000 | c1cnc(N2CCOCC2)c(CNc2ccc(Cc3c[nH]c4ncccc34)cn2)c1 [P-0347, (2-Morpholin-4-yl-pyridin-3-ylmethyl)-[5-(1H-pyrrolo[2,3-b]pyridin-3-ylmethyl)-pyridin-2-yl]-amine]
7 | < 1000 | FC(F)(F)c1cc(CNc2ccc(Cc3c[nH]c4ncccc34)cn2)ccc1Cl [P-0348, (4-Chloro-3-trifluoromethyl-benzyl)-[5-(1H-pyrrolo[2,3-b]pyridin-3-ylmethyl)-pyridin-2-yl]-amine]
8 | < 1000 | Fc1ccc(C(F)(F)F)cc1CNc1ccc(Cc2c[nH]c3ncccc23)cn1 [P-0350, (2-Fluoro-5-trifluoromethyl-benzyl)-[5-(1H-pyrrolo[2,3-b]pyridin-3-ylmethyl)-pyridin-2-yl]-amine]
9 | < 1000 | Clc1cccc(CNc2ccc(Cc3c[nH]c4ncccc34)cn2)c1Cl [P-0351, (2,3-Dichloro-benzyl)-[5-(1H-pyrrolo[2,3-b]pyridin-3-ylmethyl)-pyridin-2-yl]-amine]
10 | < 1000 | COc1cccc(CNc2ccc(Cc3c[nH]c4ncccc34)cn2)c1F [P-0352, (2-Fluoro-3-methoxy-benzyl)-[5-(1H-pyrrolo[2,3-b]pyridin-3-ylmethyl)-pyridin-2-yl]-amine]
11 | < 1000 | Fc1c(Cl)cccc1CNc1ccc(Cc2c[nH]c3ncccc23)cn1 [P-0354, (3-Chloro-2-fluoro-benzyl)-[5-(1H-pyrrolo[2,3-b]pyridin-3-ylmethyl)-pyridin-2-yl]-amine]
12 | < 1000 | Fc1ccc(CNc2ccc(Cc3c[nH]c4ncccc34)cn2)nc1 [P-0355, (5-Fluoro-pyridin-2-ylmethyl)-[5-(1H-pyrrolo[2,3-b]pyridin-3-ylmethyl)-pyridin-2-yl]-amine]
13 | < 1000 | Fc1cc(F)cc(CNc2ccc(Cc3c[nH]c4ncccc34)cn2)c1 [P-0356, (3,5-Difluoro-benzyl)-[5-(1H-pyrrolo[2,3-b]pyridin-3-ylmethyl)-pyridin-2-yl]-amine]
14 | < 1000 | CCCOc1ccccc1CNc1ccc(Cc2c[nH]c3ncccc23)cn1 [P-0357, (2-Propoxy-benzyl)-[5-(1H-pyrrolo[2,3-b]pyridin-3-ylmethyl)-pyridin-2-yl]-amine]
15 | < 1000 | c1ccc(N2CCOCC2)c(CNc2ccc(Cc3c[nH]c4ncccc34)cn2)c1 [P-0358, (2-Morpholin-4-yl-benzyl)-[5-(1H-pyrrolo[2,3-b]pyridin-3-ylmethyl)-pyridin-2-yl]-amine]
16 | < 1000 | COc1cccc(CNc2ccc(Cc3c[nH]c4ncccc34)cn2)c1Cl [P-0359, (2-Chloro-3-methoxy-benzyl)-[5-(1H-pyrrolo[2,3-b]pyridin-3-ylmethyl)-pyridin-2-yl]-amine]
17 | < 1000 | c1ccc(OCCN2CCOCC2)c(CNc2ccc(Cc3c[nH]c4ncccc34)cn2)c1 [P-0361, [2-(2-Morpholin-4-yl-ethoxy)-benzyl]-[5-(1H-pyrrolo[2,3-b]pyridin-3-ylmethyl)-pyridin-2-yl]-amine]
18 | < 1000 | Fc1cccc(CNc2ccc(Cc3c[nH]c4ncccc34)cn2)c1F [P-0362, (2,3-Difluoro-benzyl)-[5-(1H-pyrrolo[2,3-b]pyridin-3-ylmethyl)-pyridin-2-yl]-amine]
19 | < 1000 | FC(F)(F)c1cccc(CNc2ccc(Cc3c[nH]c4ncccc34)cn2)c1Cl [P-0363, (2-Chloro-3-trifluoromethyl-benzyl)-[5-(1H-pyrrolo[2,3-b]pyridin-3-ylmethyl)-pyridin-2-yl]-amine]
20 | < 1000 | Fc1c(CNc2ccc(Cc3c[nH]c4ncccc34)cn2)cccc1C(F)(F)F [P-0365, (2-Fluoro-3-trifluoromethyl-benzyl)-[5-(1H-pyrrolo[2,3-b]pyridin-3-ylmethyl)-pyridin-2-yl]-amine]
21 | < 1000 | COc1ccc(F)cc1CNc1ccc(Cc2c[nH]c3ncccc23)cn1 [P-0366, (5-Fluoro-2-methoxy-benzyl)-[5-(1H-pyrrolo[2,3-b]pyridin-3-ylmethyl)-pyridin-2-yl]-amine]

Row | IC50 [nM] | Structure (SMILES)
22 | < 1000 | FC(F)Oc1ccccc1CNc1ccc(Cc2c[nH]c3ncccc23)cn1 [P-0367, (2-Difluoromethoxy-benzyl)-[5-(1H-pyrrolo[2,3-b]pyridin-3-ylmethyl)-pyridin-2-yl]-amine]
23 | < 1000 | Cc1ccc(CNc2ccc(Cc3c[nH]c4ncccc34)cn2)c(F)c1 [P-0368, (2-Fluoro-4-methyl-benzyl)-[5-(1H-pyrrolo[2,3-b]pyridin-3-ylmethyl)-pyridin-2-yl]-amine]
24 | < 1000 | CN(C)CCCOc1ccccc1CNc1ccc(Cc2c[nH]c3ncccc23)cn1 [P-0369, [2-(3-Dimethylamino-propoxy)-benzyl]-[5-(1H-pyrrolo[2,3-b]pyridin-3-ylmethyl)-pyridin-2-yl]-amine]
25 | < 1000 | COc1ccc(CNc2ccc(Cc3c[nH]c4ncccc34)cn2)c(OC)n1 [P-0370, (2,6-Dimethoxy-pyridin-3-ylmethyl)-[5-(1H-pyrrolo[2,3-b]pyridin-3-ylmethyl)-pyridin-2-yl]-amine]
26 | < 1000 | COc1ccc(F)c(CNc2ccc(Cc3c[nH]c4ncccc34)cn2)c1 [P-0371, (2-Fluoro-5-methoxy-benzyl)-[5-(1H-pyrrolo[2,3-b]pyridin-3-ylmethyl)-pyridin-2-yl]-amine]
27 | < 1000 | Cc1cc(F)ccc1CNc1ccc(Cc2c[nH]c3ncccc23)cn1 [P-0372, (4-Fluoro-2-methyl-benzyl)-[5-(1H-pyrrolo[2,3-b]pyridin-3-ylmethyl)-pyridin-2-yl]-amine]
28 | < 1000 | Fc1cc(Cl)cc(CNc2ccc(Cc3c[nH]c4ncccc34)cn2)c1 [P-0373, (3-Chloro-5-fluoro-benzyl)-[5-(1H-pyrrolo[2,3-b]pyridin-3-ylmethyl)-pyridin-2-yl]-amine]
29 | < 1000 | Fc1ccc(C(F)(F)F)c(CNc2ccc(Cc3c[nH]c4ncccc34)cn2)c1 [P-0375, (5-Fluoro-2-trifluoromethyl-benzyl)-[5-(1H-pyrrolo[2,3-b]pyridin-3-ylmethyl)-pyridin-2-yl]-amine]
30 | < 1000 | FC(F)(F)COc1ncccc1CNc1ccc(Cc2c[nH]c3ncccc23)cn1 [P-0376, [5-(1H-Pyrrolo[2,3-b]pyridin-3-ylmethyl)-pyridin-2-yl]-[2-(2,2,2-trifluoro-ethoxy)-pyridin-3-ylmethyl]-amine]
31 | < 1000 | CCCS(=O)(=O)Nc1cccc(CNc2ccc(Cc3c[nH]c4ncccc34)cn2)c1F [P-0377, Propane-1-sulfonic acid (2-fluoro-3-{[5-(1H-pyrrolo[2,3-b]pyridin-3-ylmethyl)-pyridin-2-ylamino]-methyl}-phenyl)-amide]
32 | < 1000 | COc1ccc(CNc2ccc(Cc3c[nH]c4ncccc34)c(F)n2)cn1 [P-0378, [6-Fluoro-5-(1H-pyrrolo[2,3-b]pyridin-3-ylmethyl)-pyridin-2-yl]-(6-methoxy-pyridin-3-ylmethyl)-amine]
33 | < 1000 | COc1ccc(CNc2ccc(Cc3c[nH]c4ncc(Cl)cc34)c(F)n2)cn1 [P-0379, [5-(5-Chloro-1H-pyrrolo[2,3-b]pyridin-3-ylmethyl)-6-fluoro-pyridin-2-yl]-(6-methoxy-pyridin-3-ylmethyl)-amine]
34 | < 1000 | Fc1ccc(Cl)cc1CNc1ccc(Cc2c[nH]c3ncccc23)cn1 [P-0382, (5-Chloro-2-fluoro-benzyl)-[5-(1H-pyrrolo[2,3-b]pyridin-3-ylmethyl)-pyridin-2-yl]-amine]
35 | < 1000 | CCc1ccccc1CNc1ccc(Cc2c[nH]c3ncccc23)cn1 [P-0383, (2-Ethyl-benzyl)-[5-(1H-pyrrolo[2,3-b]pyridin-3-ylmethyl)-pyridin-2-yl]-amine]
36 | < 1000 | CNc1ncccc1CNc1ccc(Cc2c[nH]c3ncccc23)cn1 [P-0385, Methyl-(3-{[5-(1H-pyrrolo[2,3-b]pyridin-3-ylmethyl)-pyridin-2-ylamino]-methyl}-pyridin-2-yl)-amine]
37 | < 1000 | CS(=O)(=O)c1ccc(CNc2ccc(Cc3c[nH]c4ncccc34)cn2)c(Cl)c1 [P-0387, (2-Chloro-4-methanesulfonyl-benzyl)-[5-(1H-pyrrolo[2,3-b]pyridin-3-ylmethyl)-pyridin-2-yl]-amine]
38 | < 1000 | FC(F)Oc1ccccc1CNc1ncc(Cc2c[nH]c3ncc(Cl)cc23)cn1 [P-0390, [5-(5-Chloro-1H-pyrrolo[2,3-b]pyridin-3-ylmethyl)-pyrimidin-2-yl]-(2-difluoromethoxy-benzyl)-amine]
39 | < 1000 | Fc1c(Cl)cccc1CNc1ncc(Cc2c[nH]c3ncc(Cl)cc23)cn1 [P-0392, (3-Chloro-2-fluoro-benzyl)-[5-(5-chloro-1H-pyrrolo[2,3-b]pyridin-3-ylmethyl)-pyrimidin-2-yl]-amine]
40 | < 1000 | Fc1c(CNc2ncc(Cc3c[nH]c4ncc(Cl)cc34)cn2)cccc1C(F)(F)F [P-0393, [5-(5-Chloro-1H-pyrrolo[2,3-b]pyridin-3-ylmethyl)-pyrimidin-2-yl]-(2-fluoro-3-trifluoromethyl-benzyl)-amine]
41 | < 1000 | Fc1cc(C(F)(F)F)ccc1CNc1ncc(Cc2c[nH]c3ncc(Cl)cc23)cn1 [P-0394, [5-(5-Chloro-1H-pyrrolo[2,3-b]pyridin-3-ylmethyl)-pyrimidin-2-yl]-(2-fluoro-4-trifluoromethyl-benzyl)-amine]
